Measured values published in ChEMBL document CHEMBL1201862, “PubChem BioAssay data set” (2004).
Calls of active or inactive are those of the source.

Legend:
[1] = molecular target: T1, DNA repair protein RAD52 homolog (Homo sapiens, UniProt P43351); format: functional, biochemical
T1 sequence (P43351 whole entry): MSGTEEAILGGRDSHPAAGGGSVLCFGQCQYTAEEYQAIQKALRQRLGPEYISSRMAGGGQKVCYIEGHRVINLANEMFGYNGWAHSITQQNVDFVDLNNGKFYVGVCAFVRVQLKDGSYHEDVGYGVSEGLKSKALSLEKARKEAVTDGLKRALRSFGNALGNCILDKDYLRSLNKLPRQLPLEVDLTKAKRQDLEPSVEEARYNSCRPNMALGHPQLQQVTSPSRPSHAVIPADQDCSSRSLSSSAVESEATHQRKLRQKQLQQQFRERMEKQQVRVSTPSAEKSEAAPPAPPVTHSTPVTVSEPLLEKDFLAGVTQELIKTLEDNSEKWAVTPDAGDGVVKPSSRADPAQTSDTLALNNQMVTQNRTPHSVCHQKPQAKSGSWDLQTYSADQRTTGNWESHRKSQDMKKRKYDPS

Paired box protein Pax-8 = Paired box protein Pax-8 (Homo sapiens, UniProt Q06710); assay: PAX8 transcriptional activity inhibition in RMG-I – RMG-I cells, luciferase, cherry-pick, dose response (AID 687027); format: functional, cell-based;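 also: luciferase reporter driven by Pax8 target thyroperoxidase promoter measured by SteadyGlo luminescence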
Paired box protein Pax-8, sequence (Q06710 whole entry): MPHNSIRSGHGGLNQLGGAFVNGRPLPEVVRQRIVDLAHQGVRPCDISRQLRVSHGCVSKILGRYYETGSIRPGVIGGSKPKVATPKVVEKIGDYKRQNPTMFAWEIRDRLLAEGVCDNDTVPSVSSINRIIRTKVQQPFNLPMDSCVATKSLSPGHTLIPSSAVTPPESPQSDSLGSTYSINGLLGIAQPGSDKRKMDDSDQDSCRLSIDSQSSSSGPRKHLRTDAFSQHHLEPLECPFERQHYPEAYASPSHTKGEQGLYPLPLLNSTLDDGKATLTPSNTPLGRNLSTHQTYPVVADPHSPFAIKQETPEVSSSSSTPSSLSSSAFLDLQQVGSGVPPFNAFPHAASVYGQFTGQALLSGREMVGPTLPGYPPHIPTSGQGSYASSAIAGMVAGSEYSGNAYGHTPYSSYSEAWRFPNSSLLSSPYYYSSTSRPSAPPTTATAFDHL

[2] = general cell-killing toxicity readout – plate reader, dry powder samples, cytotoxicity control for PAX8 inhibitor project, dose response (AID 743021); format: functional, cell-based
H9c2 = assay: cells; format: functional, cell-based; conditions: Rattus norvegicus, H9c2, Myocardium;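 also: confirmatory concentration-response retest of ultra-high-throughput screening hits for modulation of myocardial damage; cell death induced by hydrogen peroxide oxidative stress; compound pretreatment for 60 min then peroxide exposure for 2 h; potency is for protecting the cells against peroxide damage rather than for killing them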
[3] = HIV-1 AD8 envelope cell-cell fusion blockers – cherry-pick, dose response (AID 652062); format: functional, cell-based;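 also: luciferase signal from cell-cell fusion driven by HIV-1 clade B AD8 Env; potency is for inhibitors of fusion seen as a drop in luminescence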
[4] = blockers of HIV-1 ZM109 envelope-driven cell-cell fusion – HeLa effector, CEM target cells, luciferase, cherry-pick, dose response (AID 652058); format: functional, cell-based;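 also: luciferase signal from HIV-1 Env mediated cell-cell fusion of effector and target cells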
[5] = blockers of HIV-1 envelope-mediated cell-cell fusion – cherry-pick, dose response (AID 652057); format: functional, cell-based
[6] = off-target signal loss in HeLa-CEM21 co-culture – HeLa F-luc CTL cells, cherry-picked, counter-screen for HIV-1 Env fusion inhibitor project, dose response (AID 652040); format: functional, cell-based;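 also: potency for signal decrease marking cytotoxic or nonspecific inhibition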
[7] = tested on: Streptococcus sp. 'group A'; assay: Streptococcus pyogenes SK(-)GAS viability under kanamycin – luminescence, BacTiterGlo, confirmation, counter-screen for streptokinase expression inhibitor project, dose response (AID 1900); format: functional, organism-based
Streptococcus = assay: GAS UMAA2166 growth inhibition – luminescence, BacTiterGlo, counter-screen for streptokinase expression inhibitor project, dose response (AID 1915); format: functional, organism-based;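 also: potency for reduction of bacterial viability or growth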
[8] = viability loss in THP-1 monocytes – THP-1 cells, cytotoxicity control for Vif-APOBEC3G degradation inhibitor project, dose response (AID 1117359); format: functional; conditions: THP-1
Streptokinase A = molecular target: T2, Streptokinase A (Streptococcus pyogenes serotype M1, UniProt P10520); assay: viability-normalized secreted streptokinase activity reduction – plasminogen activation absorbance, OD405, dose response (AID 1914); format: functional, Streptococcus pyogenes M1 GAS;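 also: secreted streptokinase activity via plasminogen activation per viability signal from cell pellet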
T2 sequence (P10520 whole entry): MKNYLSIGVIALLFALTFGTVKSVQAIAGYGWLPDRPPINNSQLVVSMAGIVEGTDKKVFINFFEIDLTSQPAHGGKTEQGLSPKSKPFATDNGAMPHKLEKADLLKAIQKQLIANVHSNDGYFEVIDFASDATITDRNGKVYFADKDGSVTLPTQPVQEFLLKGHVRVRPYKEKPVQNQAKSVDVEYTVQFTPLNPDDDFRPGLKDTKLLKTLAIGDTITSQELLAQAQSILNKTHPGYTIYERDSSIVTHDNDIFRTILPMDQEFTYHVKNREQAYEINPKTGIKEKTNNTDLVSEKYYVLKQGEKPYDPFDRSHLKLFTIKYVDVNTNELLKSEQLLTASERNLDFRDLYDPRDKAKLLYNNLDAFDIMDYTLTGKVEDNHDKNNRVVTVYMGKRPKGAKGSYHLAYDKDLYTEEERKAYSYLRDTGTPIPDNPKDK

[9] = reduced cellular PGC1a acetyl-lysine signal – cell-based, cherry-picked samples, dose response (AID 720514); format: functional;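 also: potency may reflect raised or lowered acetylation signal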
[10] = blockade of melanocortin 4 receptor signaling – cell-based, plate reader, cherry pick, counter-screen for LGR2 antagonist project, dose response (AID 743444); format: functional;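 also: transfected HEK 293 cells stimulated with alpha-MSH peptide; potency of inhibitors of the alpha-MSH evoked signal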
[11] = blockers of bursicon-stimulated LGR2 cAMP reporter – cell-based, HEK293, CRE-luciferase reporter, cherry pick, set 2, dose response (AID 743343); format: functional;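 also: transfected cells were stimulated with diluted bursicon conditioned medium after compound addition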
[12] = viability loss in HEK293 cells – cell-based, plate reader, cherry-picked samples, cytotoxicity control, dose response (AID 743446); format: functional
[13] = A549 cell cytotoxicity, dose response, cytotoxicity control, plate reader, cherry-pick, antagonist series (AID 743412); format: functional, cell-based
[14] = toxicity toward HepG2 liver cells – cell-based, plate reader, cherry-pick, antagonist series, cytotoxicity control, dose response (AID 743416); format: functional
[15] = molecular target: T3, DNA repair and recombination protein RAD54-like (Homo sapiens, UniProt Q92698); assay: RAD54 Holliday junction migration blockers – biochemical, fluorescence, cherry-picked samples, dose series, confirmation (AID 651657); format: functional
T3 sequence (Q92698 whole entry): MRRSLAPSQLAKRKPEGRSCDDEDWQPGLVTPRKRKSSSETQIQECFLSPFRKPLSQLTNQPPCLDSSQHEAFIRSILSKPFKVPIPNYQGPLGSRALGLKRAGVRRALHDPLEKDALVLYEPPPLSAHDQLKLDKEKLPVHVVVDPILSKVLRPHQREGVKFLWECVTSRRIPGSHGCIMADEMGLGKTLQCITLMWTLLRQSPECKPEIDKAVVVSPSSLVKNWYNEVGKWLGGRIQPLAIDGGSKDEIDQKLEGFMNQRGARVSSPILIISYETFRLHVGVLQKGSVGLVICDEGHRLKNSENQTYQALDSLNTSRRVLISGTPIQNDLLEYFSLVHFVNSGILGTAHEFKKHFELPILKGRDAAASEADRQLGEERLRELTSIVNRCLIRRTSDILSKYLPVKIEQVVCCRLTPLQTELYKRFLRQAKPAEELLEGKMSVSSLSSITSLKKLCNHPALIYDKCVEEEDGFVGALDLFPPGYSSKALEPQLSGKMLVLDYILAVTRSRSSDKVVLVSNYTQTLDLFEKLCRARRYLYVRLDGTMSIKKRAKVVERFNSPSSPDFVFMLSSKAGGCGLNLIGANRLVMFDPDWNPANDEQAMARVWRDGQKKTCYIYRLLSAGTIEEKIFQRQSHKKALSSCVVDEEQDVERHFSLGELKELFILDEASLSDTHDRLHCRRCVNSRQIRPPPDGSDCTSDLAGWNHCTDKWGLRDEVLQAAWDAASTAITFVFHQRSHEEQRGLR

[16] = molecular target: T4, Corticotropin-releasing factor receptor 2/Corticotropin-releasing factor-binding protein (Homo sapiens, UniProt P24387+Q13324); assay: activators of CRF receptor 2 with binding protein – uHTS hits, confirmation (AID 602473); format: functional; conditions: read-out: EC50_Mean
T4 sequence (Q13324 whole entry): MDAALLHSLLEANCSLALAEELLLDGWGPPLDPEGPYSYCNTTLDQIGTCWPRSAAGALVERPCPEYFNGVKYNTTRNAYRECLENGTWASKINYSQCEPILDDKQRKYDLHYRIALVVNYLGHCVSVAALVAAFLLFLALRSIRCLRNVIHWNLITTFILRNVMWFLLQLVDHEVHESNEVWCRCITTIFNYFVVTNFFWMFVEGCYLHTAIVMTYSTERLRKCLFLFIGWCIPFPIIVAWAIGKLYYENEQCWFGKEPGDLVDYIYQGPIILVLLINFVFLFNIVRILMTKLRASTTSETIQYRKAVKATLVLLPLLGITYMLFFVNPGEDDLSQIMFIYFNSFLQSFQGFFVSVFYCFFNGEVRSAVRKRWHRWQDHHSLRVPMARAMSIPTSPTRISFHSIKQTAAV
T4 sequence (P24387 whole entry): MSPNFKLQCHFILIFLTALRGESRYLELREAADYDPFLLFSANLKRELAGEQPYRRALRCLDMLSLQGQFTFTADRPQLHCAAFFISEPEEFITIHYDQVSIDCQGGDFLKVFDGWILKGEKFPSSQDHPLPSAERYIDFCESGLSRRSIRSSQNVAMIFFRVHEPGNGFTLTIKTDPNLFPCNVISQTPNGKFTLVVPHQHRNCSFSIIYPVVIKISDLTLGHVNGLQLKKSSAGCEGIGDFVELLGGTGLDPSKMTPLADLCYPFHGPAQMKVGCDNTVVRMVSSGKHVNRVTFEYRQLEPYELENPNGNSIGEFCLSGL

cells [17] = format: functional, cell-based
cells [18] = format: functional, cell-based; remark: listed apart in the source
[19] = molecular target: T5, Zinc finger protein mex-5 (Caenorhabditis elegans, UniProt Q9XUB2); assay: potency of MEX-5 RNA-binding blockers – biochemical, C. elegans, fluorescence polarization, dose response (AID 1960)
T5 sequence (Q9XUB2 whole entry): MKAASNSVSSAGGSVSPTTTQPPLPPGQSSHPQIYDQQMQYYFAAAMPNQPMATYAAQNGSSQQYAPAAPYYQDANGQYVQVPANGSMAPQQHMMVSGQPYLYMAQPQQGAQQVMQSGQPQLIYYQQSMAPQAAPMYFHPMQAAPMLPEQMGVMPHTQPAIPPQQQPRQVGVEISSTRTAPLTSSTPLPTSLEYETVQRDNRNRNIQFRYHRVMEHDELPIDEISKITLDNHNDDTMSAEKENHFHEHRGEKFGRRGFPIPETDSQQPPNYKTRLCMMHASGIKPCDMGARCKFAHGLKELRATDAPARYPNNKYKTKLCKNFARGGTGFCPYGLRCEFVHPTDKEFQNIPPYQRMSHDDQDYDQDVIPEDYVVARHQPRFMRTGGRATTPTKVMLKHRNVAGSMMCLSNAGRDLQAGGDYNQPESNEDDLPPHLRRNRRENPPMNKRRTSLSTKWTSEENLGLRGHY

[20] = molecular target: T6, RNA-binding protein pos-1 (Caenorhabditis elegans, UniProt G5EF15); assay: disruptors of C. elegans POS-1 RNA interaction – biochemical, fluorescence polarization, dose response (AID 1964);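 also: purified POS-1 fused to maltose binding protein made in E. coli; potency of compounds blocking POS-1 binding to fluorescent RNA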
T6 sequence (G5EF15 whole entry): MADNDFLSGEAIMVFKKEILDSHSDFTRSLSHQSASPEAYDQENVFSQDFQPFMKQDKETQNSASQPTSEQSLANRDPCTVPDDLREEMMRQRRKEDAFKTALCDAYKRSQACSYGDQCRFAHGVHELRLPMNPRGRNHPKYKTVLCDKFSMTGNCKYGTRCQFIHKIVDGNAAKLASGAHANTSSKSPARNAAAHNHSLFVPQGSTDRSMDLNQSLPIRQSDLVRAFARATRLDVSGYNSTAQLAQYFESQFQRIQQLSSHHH

C[C@]12CC[C@H](OC(=O)[C@@H](N)CCCCN)C[C@@H]1CC[C@@H]1[C@@H]2CC[C@@]2(C)[C@H]1CC[C@]2(C)O
AC50 [1]: 1.93 µM (active)

CN1CCc2c(sc(N)c2C(=O)O)C1
AC50 [1]: 11.7 µM (active)

CC1=C(N2CC2)C(=O)C(CO)=C(N2CC2)C1=O
AC50 (Paired box protein Pax-8): < 0.26 µM (active) | AC50 [2]: 14.8 µM (active)

COc1ccc(-c2cc(=O)oc3c(C)c(O)c(CN(C)C)cc23)cc1
IC50 (H9c2): > 79 µM (inactive) | AC50 [3]: 17.4 µM (active) | AC50 [4]: 18.1 µM (active) | AC50 [5]: 13 µM (active) | AC50 [6]: 7.97 µM (active)

C=CCN1C(=O)NC(=O)/C(=C(/CC)Nc2ccc(N(C)C)cc2)C1=O
EC50 [7]: 5.65 µM (active) | EC50 (Streptococcus): 9.73 µM (active) | CC50 [8]: > 40 µM (active) | EC50 (Streptokinase A): > 150 µM (not active)

CC[C@H](C)[C@H](NC(=O)c1ccc(Cl)cc1)C(=O)OCC(=O)c1ccc2c(c1)NC(=O)CO2
AC50 [9]: 6.76 µM (active)

Oc1nc2ccccc2n1C1CCN(C(c2cc3ccccc3o2)c2nnnn2Cc2ccccc2)CC1 (centres undefined)
AC50 [9]: 9.76 µM (active) | AC50 [10]: 9.44 µM (active) | AC50 [11]: 13.5 µM (active) | AC50 (Paired box protein Pax-8): 6.31 µM (active) | AC50 [12]: 14.7 µM (active) | AC50 [13]: 9.97 µM (active) | AC50 [14]: 24.8 µM (active) | AC50 [2]: 19 µM (active)

COC(=O)c1c(NC(=O)c2ccco2)sc2c1CCN(C(C)C)C2
AC50 [15]: 25.4 µM (active) | EC50 [16]: > 53 µM (inactive)

COC(=O)[C@@]1(C)[C@H]2C(=O)N(Cc3ccccc3)C(=O)[C@H]2[C@H]2CN=C(SCC3CC3)N21
AC50 [3]: 7.31 µM (active) | AC50 [4]: 2.3 µM (active) | AC50 [5]: 2.13 µM (active) | AC50 [6]: 2.95 µM (active)

O=C(N[C@@H]1CC[C@@H](CCNS(=O)(=O)c2ccccc2Cl)O[C@@H]1CO)c1ccc(F)cc1
AC50 [9]: 36.1 µM (active)

Cc1cc2ccc3ccccc3c2cc1CN(C)C
AC50 [15]: 38.3 µM (active) | EC50 (cells [17]): > 350 µM (not active) | EC50 (cells [18]): > 350 µM (not active)

CN(C)C(CNC(=O)CCCN1C(=O)c2cccc3cccc(c23)C1=O)c1ccccc1 (centres undefined)
AC50 [15]: 43.4 µM (active)

CC(C)OCC(O)CN1CCN(CCN2C(=O)c3cccc4cccc(c34)C2=O)CC1 (centres undefined)
EC50 [19]: > 300 µM (not active) | AC50 [1]: 3.93 µM (active) | AC50 [15]: 8.86 µM (active) | EC50 [20]: > 300 µM (not active)

CC(=O)Nc1cccc(NC(=N)Nc2nc(C)cc(C)n2)c1
AC50 [1]: 18.8 µM (active)

CC1(C(=O)N/N=C/c2ccc3c(c2)OCO3)CC1(Br)Br (centres undefined)
AC50 [3]: 7.47 µM (active) | AC50 [4]: 4.12 µM (active) | AC50 [5]: 5.4 µM (active) | AC50 [6]: 7.57 µM (active)

COc1ccc(CCNCc2ccc(OCc3ccccc3)cc2)cc1
CC50 [8]: 21.9 µM (active)

COc1cc(C(=O)NC2CCN(C)CC2)ccc1Nc1ncc2c(n1)N(CCc1ccccc1)CCC(=O)N2C
AC50 [1]: 8.71 µM (active)
